Structures can show the parent of a compound that is named as a salt.
How the values were obtained:
Assay type in all cases: biochemical
[1] = biological target: T1, Recombinant Human Anaplastic Lymphoma Kinase (Homo sapiens, UniProt Q9UM73); assay: ALK HTRF kinase assay; settings: compound at 500 nM or 1 mM; 90 μM ATP
T1 construct: purchased Invitrogen, Carlsbad, Calif
In short: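 Biotinylated peptide substrate, recombinant human ALK; detection via europium-chelate antibody to phosphotyrosine paired with streptavidin-APC. Potency expressed as IC50 from four-parameter curve fitting.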

TYK2 = TYK2 (Homo sapiens, UniProt P29597); assay: TYK2 kinase inhibition (Table A1)
[2] = biological target: T2, human JAK1 (a.a. 837-1142) (Homo sapiens, UniProt P23458); assay: In vitro JAK kinase assay (HTRF, phosphorylation of a biotinylated peptide), JAK1; settings: method AA1 (90 μM ATP) or AA2 (1000 μM ATP), not stated per value; read-out: JAK1 IC50
T2 construct: human JAK1 (a.a. 837-1142); His tag (N); made in house; host or cells: insect cells (baculovirus)
In short: (§1)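 Kinase activity was measured as phosphorylation of a biotinylated peptide, with ATP at 90 μM for JAK1, 30 μM for JAK2 and 3 μM for JAK3. Reactions ran 1 hr at room temperature, were stopped with EDTA plus SA-APC and Eu-Py20, and were read by HTRF after 40 minutes of antibody binding.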

[3] = biological target: T3, human JAK2 (a.a. 828-1132) (Homo sapiens, UniProt O60674); assay: In vitro JAK kinase assay (HTRF, phosphorylation of a biotinylated peptide), JAK2; settings: method AA1 (30 μM ATP) or AA2 (1000 μM ATP), not stated per value
T3 construct: JAK2 (a.a. 828-1132); His tag (N); made in house; host or cells: insect cells (baculovirus)
In short: as §1

[4] = biological target: T4, human JAK3 (a.a. 781-1124) (Homo sapiens, UniProt P52333); assay: In vitro JAK kinase assay (HTRF, phosphorylation of a biotinylated peptide), JAK3; settings: method AA1 (3 μM ATP) or AA2 (1000 μM ATP), not stated per value
T4 construct: JAK3 (a.a. 781-1124); His tag (N); made in house; host or cells: insect cells (baculovirus)
In short: as §1

T3 sequence (O60674 828-1132): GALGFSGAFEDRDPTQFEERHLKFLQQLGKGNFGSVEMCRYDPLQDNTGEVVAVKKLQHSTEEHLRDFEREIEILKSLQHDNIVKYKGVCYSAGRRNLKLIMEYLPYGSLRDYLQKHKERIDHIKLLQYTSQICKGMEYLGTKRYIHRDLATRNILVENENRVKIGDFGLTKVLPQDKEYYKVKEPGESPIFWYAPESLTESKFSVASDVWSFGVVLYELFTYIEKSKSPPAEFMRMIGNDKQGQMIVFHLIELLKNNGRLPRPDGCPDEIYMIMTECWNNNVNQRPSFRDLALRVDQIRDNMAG
TYK2, sequence (P29597 whole entry): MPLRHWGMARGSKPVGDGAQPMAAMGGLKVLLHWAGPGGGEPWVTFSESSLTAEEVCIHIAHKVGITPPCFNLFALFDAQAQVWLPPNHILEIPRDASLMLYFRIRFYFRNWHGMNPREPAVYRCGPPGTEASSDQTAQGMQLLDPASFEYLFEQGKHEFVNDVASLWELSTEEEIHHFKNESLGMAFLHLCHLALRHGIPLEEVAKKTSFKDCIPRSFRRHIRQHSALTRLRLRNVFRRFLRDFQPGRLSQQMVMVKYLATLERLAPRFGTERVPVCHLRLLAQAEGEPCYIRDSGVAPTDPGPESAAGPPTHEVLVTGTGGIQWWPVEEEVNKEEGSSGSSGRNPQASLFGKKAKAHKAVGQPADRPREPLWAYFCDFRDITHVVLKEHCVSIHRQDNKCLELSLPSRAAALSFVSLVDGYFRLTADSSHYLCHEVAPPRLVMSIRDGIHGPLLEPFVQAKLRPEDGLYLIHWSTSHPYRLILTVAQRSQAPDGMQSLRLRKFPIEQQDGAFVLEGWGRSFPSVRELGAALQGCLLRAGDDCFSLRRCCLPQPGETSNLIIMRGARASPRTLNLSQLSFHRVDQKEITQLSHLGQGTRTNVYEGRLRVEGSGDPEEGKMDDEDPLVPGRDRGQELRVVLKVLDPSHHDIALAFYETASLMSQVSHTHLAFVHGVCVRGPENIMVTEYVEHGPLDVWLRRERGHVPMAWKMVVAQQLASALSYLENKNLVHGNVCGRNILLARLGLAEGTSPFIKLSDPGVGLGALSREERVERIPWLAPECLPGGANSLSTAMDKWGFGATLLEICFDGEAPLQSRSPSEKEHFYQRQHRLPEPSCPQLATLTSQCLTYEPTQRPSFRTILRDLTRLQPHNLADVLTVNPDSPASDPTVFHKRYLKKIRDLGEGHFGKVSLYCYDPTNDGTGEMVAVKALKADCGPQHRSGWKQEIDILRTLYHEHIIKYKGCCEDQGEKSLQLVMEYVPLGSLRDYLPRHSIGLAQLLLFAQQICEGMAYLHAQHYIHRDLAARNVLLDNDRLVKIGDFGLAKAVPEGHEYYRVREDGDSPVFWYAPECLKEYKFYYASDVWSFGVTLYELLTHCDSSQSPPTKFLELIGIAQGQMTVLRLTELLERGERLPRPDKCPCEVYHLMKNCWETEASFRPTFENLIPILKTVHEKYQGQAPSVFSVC
T4 sequence (P52333 781-1124): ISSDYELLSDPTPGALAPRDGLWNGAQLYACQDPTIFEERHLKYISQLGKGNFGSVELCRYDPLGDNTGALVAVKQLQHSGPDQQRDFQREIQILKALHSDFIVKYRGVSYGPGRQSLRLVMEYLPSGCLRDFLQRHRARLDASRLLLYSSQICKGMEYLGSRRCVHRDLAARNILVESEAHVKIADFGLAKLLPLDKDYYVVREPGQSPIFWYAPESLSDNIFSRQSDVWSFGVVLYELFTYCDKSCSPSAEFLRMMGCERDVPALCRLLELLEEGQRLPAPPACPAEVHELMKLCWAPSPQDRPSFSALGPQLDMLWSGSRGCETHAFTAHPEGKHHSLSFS
T1 sequence (Q9UM73 19-1620): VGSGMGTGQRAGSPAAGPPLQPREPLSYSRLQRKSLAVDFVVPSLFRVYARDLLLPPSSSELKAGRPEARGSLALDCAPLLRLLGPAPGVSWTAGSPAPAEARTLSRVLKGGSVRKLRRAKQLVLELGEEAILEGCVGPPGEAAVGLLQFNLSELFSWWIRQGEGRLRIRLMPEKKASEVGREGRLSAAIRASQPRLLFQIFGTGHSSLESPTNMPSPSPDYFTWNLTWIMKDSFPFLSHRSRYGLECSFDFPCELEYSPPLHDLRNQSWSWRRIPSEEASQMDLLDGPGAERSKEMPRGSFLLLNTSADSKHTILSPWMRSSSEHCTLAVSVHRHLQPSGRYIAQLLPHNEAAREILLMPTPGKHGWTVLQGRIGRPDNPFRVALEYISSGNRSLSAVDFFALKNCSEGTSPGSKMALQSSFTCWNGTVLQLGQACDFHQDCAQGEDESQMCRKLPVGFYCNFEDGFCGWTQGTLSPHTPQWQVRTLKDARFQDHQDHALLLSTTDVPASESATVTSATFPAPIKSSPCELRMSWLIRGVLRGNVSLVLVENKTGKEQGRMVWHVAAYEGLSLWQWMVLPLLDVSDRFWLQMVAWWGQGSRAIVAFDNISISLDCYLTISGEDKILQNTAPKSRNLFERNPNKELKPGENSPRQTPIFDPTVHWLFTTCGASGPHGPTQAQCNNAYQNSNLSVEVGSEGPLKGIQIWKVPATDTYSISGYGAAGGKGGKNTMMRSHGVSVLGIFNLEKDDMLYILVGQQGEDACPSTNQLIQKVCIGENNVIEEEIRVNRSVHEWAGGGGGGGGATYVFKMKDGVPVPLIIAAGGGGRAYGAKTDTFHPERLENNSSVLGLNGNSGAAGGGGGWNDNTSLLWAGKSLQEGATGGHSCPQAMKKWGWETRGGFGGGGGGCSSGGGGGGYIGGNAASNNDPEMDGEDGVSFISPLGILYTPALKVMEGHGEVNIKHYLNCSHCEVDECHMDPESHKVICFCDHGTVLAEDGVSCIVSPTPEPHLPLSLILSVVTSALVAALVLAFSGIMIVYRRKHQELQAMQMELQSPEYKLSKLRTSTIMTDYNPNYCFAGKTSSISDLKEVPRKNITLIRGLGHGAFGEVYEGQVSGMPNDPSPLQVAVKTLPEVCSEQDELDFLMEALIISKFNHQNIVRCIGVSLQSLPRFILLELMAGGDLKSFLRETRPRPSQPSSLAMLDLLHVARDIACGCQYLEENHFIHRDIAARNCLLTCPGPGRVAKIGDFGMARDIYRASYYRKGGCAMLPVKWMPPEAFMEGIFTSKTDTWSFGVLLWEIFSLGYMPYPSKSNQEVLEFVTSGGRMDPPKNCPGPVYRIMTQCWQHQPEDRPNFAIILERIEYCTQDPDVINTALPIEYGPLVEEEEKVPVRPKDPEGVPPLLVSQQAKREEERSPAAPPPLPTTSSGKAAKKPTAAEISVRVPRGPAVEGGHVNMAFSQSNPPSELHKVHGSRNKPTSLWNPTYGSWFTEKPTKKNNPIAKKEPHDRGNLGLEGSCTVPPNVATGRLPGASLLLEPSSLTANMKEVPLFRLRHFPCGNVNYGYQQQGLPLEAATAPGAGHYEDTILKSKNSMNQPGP
T2 sequence (P23458 849-1154): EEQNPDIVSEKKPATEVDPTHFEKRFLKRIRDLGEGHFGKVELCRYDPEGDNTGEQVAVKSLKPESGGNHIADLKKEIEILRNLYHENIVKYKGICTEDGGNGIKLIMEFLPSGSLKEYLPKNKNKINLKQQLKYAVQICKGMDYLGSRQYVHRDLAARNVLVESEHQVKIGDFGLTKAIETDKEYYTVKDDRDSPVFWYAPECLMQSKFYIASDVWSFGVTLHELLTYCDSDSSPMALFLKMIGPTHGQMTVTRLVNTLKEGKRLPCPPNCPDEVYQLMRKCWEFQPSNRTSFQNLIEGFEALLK

| Compound | ALK % of inhibition at a concentration of 500 nM or 1 mM [1] [%] | IC50 (TYK2) [nM] | IC50 [2] [nM] | IC50 [3] [nM] | IC50 [4] [nM] |
| --- | --- | --- | --- | --- | --- |
| O=C(CC1CCN(C(=O)c2ccncc2)CC1)Nc1ccc2cc1CCc1cccc(c1)Nc1ncc(Cl)c(n1)N2 [Example A185, N-[6-Chloro-2,4,8,22-tetraazatetracyclo[14.3.1.1(3,7).1(9,13)]docosa-1(20),3(22),4,6,9(21),10,12,16,18-nonaen-12-yl]-2-(1-isonicotinoylpiperidin-4-yl)acetamide bis(trifluoroacetate)] | 33 | > 200 | 62 | > 200 | > 200 |
| N#Cc1ccc(C(=O)N2CCC(CC(=O)Nc3ccc4cc3CCc3cccc(c3)Nc3ncc(Cl)c(n3)N4)CC2)cc1 [Example A186, N-[6-Chloro-2,4,8,22-tetraazatetracyclo[14.3.1.1(3,7).1(9,13)]docosa-1(20),3(22),4,6,9(21),10,12,16,18-nonaen-12-yl]-2-[1-(4-cyanobenzoyl)piperidin-4-yl]acetamide trifluoroacetate] | 38 | > 200 | 58 | 185 | > 200 |
| N#Cc1cccc(C(=O)N2CCC(CC(=O)Nc3ccc4cc3CCc3cccc(c3)Nc3ncc(Cl)c(n3)N4)CC2)c1 [Example A187, N-[6-Chloro-2,4,8,22-tetraazatetracyclo[14.3.1.1(3,7).1(9,13)]docosa-1(20),3(22),4,6,9(21),10,12,16,18-nonaen-12-yl]-2-[1-(3-cyanobenzoyl)piperidin-4-yl]acetamide trifluoroacetate] | 37 | > 200 | 52 | 132 | > 200 |
| O=C(CC1CCN(C(=O)c2cccnc2)CC1)Nc1ccc2cc1CCc1cncc(c1)Nc1ncc(Cl)c(n1)N2 [Example A188, N-[6-Chloro-2,4,8,18,22-pentaazatetracyclo[14.3.1.1(3,7).1(9,13)]docosa-1(20),3(22),4,6,9(21),10,12,16,18-nonaen-12-yl]-2-[1-(pyridin-3-ylcarbonyl)piperidin-4-yl]acetamide tris(trifluoroacetate)] | 26 | > 200 | 34 | > 200 | > 200 |
| O=C(CC1CCN(C(=O)c2ccncc2)CC1)Nc1ccc2cc1CCc1cncc(c1)Nc1ncc(Cl)c(n1)N2 [Example A189, N-[6-Chloro-2,4,8,18,22-pentaazatetracyclo[14.3.1.1(3,7).1(9,13)]docosa-1(20),3(22),4,6,9(21),10,12,16,18-nonaen-12-yl]-2-(1-isonicotinoylpiperidin-4-yl)acetamide tris(trifluoroacetate)] | 21 | > 200 | 116 | > 200 | > 200 |
| N#Cc1cccc(C(=O)N2CCC(CC(=O)Nc3ccc4cc3CCc3cncc(c3)Nc3ncc(Cl)c(n3)N4)CC2)c1 [Example A191, N-[6-Chloro-2,4,8,18,22-pentaazatetracyclo[14.3.1.1(3,7).1(9,13)]docosa-1(20),3(22),4,6,9(21),10,12,16,18-nonaen-12-yl]-2-[1-(3-cyanobenzoyl)piperidin-4-yl]acetamide bis(trifluoroacetate)] | 25 | > 200 | 67 | > 200 | > 200 |
| O=C(CC1CCN(C(=O)c2ccccc2)CC1)Nc1ccc2cc1CCc1cncc(c1)Nc1ncc(Cl)c(n1)N2 [Example A192, 2-(1-Benzoylpiperidin-4-yl)-N-[6-chloro-2,4,8,18,22-pentaazatetracyclo[14.3.1.1(3,7).1(9,13)]docosa-1(20),3(22),4,6,9(21),10,12,16,18-nonaen-12-yl]acetamide bis(trifluoroacetate)] | 31 | > 200 | 21 | > 200 | > 200 |
| O=C(CC1CCN(C(=O)c2ccc(F)cc2)CC1)Nc1ccc2cc1CCc1cncc(c1)Nc1ncc(Cl)c(n1)N2 [Example A193, N-[6-Chloro-2,4,8,18,22-pentaazatetracyclo[14.3.1.1(3,7).1(9,13)]docosa-1(20),3(22),4,6,9(21),10,12,16,18-nonaen-12-yl]-2-[1-(4-fluorobenzoyl)piperidin-4-yl]acetamide bis(trifluoroacetate)] | 31 | > 200 | 12 | > 200 | > 200 |
| O=C(CC1CCN(C(=O)c2ccc(F)cc2F)CC1)Nc1ccc2cc1CCc1cncc(c1)Nc1ncc(Cl)c(n1)N2 [Example A194, N-[6-Chloro-2,4,8,18,22-pentaazatetracyclo[14.3.1.1(3,7).1(9,13)]docosa-1(20),3(22),4,6,9(21),10,12,16,18-nonaen-12-yl]-2-[1-(2,4-difluorobenzoyl)piperidin-4-yl]acetamide bis(trifluoroacetate)] | 31 | > 200 | 7.3 | 150 | > 200 |
| O=C(CC1CCN(S(=O)(=O)c2ccccc2)CC1)Nc1ccc2cc1CCc1cncc(c1)Nc1ncc(Cl)c(n1)N2 [Example A195, N-[6-Chloro-2,4,8,18,22-pentaazatetracyclo[14.3.1.1(3,7).1(9,13)]docosa-1(20),3(22),4,6,9(21),10,12,16,18-nonaen-12-yl]-2-[1-(phenylsulfonyl)piperidin-4-yl]acetamide bis(trifluoroacetate)] | 35 | 140 | 7.1 | 80 | > 200 |
| COc1cccc(S(=O)(=O)N2CCC(CC(=O)Nc3ccc4cc3CCc3cncc(c3)Nc3ncc(Cl)c(n3)N4)CC2)c1 [Example A196, N-[6-Chloro-2,4,8,18,22-pentaazatetracyclo[14.3.1.1(3,7).1(9,13)]docosa-1(20),3(22),4,6,9(21),10,12,16,18-nonaen-12-yl]-2-{1-[(3-methoxyphenyl)sulfonyl]piperidin-4-yl}acetamide bis(trifluoroacetate)] | 34 | > 200 | 15 | 100 | > 200 |
| COc1ccc(S(=O)(=O)N2CCC(CC(=O)Nc3ccc4cc3CCc3cncc(c3)Nc3ncc(Cl)c(n3)N4)CC2)cc1 [Example A197, N-[6-Chloro-2,4,8,18,22-pentaazatetracyclo[14.3.1.1(3,7).1(9,13)]docosa-1(20),3(22),4,6,9(21),10,12,16,18-nonaen-12-yl]-2-{1-[(4-methoxyphenyl)sulfonyl]piperidin-4-yl}acetamide bis(trifluoroacetate)] | 39 | > 200 | 30 | > 200 | > 200 |
| N#Cc1ccccc1S(=O)(=O)N1CCC(CC(=O)Nc2ccc3cc2CCc2cncc(c2)Nc2ncc(Cl)c(n2)N3)CC1 [Example A198, N-[6-Chloro-2,4,8,18,22-pentaazatetracyclo[14.3.1.1(3,7).1(9,13)]docosa-1(20),3(22),4,6,9(21),10,12,16,18-nonaen-12-yl]-2-{1-[(2-cyanophenyl)sulfonyl]piperidin-4-yl}acetamide bis(trifluoroacetate)] | 56 | 50 | 0.4 | 50 | > 200 |
| N#Cc1ccc(S(=O)(=O)N2CCC(CC(=O)Nc3ccc4cc3CCc3cncc(c3)Nc3ncc(Cl)c(n3)N4)CC2)cc1 [Example A199, N-[6-Chloro-2,4,8,18,22-pentaazatetracyclo[14.3.1.1(3,7).1(9,13)]docosa-1(20),3(22),4,6,9(21),10,12,16,18-nonaen-12-yl]-2-{1-[(4-cyanophenyl)sulfonyl]piperidin-4-yl}acetamide bis(trifluoroacetate)] | 41 | > 200 | 32 | 199 | > 200 |
| Cc1oncc1S(=O)(=O)N1CCC(CC(=O)Nc2ccc3cc2CCc2cncc(c2)Nc2ncc(Cl)c(n2)N3)CC1 [Example A200, N-[6-Chloro-2,4,8,18,22-pentaazatetracyclo[14.3.1.1(3,7).1(9,13)]docosa-1(20),3(22),4,6,9(21),10,12,16,18-nonaen-12-yl]-2-{1-[(5-methylisoxazol-4-yl)sulfonyl]piperidin-4-yl}acetamide bis(trifluoroacetate)] | 25 | > 200 | 8.5 | 101 | > 200 |

From US8871753B2, “Macrocyclic compounds and their use as kinase inhibitors” (Incyte Corporation, priority 2008, dated 2014)
